Measured values taken from the NIST ThermoML archive (doi:10.1021/je049918m).
“And” between values parts separate entries of the source, which are not always exact repeats. Identical values can stand only once. ± gives the expanded uncertainty stated by the source.

Conditions: Liquid, Falling or rolling sphere viscometry

O [water]
Conditions	viscosity
255.65 K, 177500 kPa	2.945 ± 0.038 mPa·s
255.65 K, 190300 kPa	2.955 ± 0.038 mPa·s
255.65 K, 196700 kPa	2.959 ± 0.038 mPa·s
255.65 K, 201800 kPa	2.964 ± 0.038 mPa·s
255.65 K, 231800 kPa	3.003 ± 0.038 mPa·s
255.65 K, 257800 kPa	3.056 ± 0.039 mPa·s
255.65 K, 292300 kPa	3.135 ± 0.04 mPa·s
255.65 K, 321100 kPa	3.217 ± 0.041 mPa·s
258.15 K, 159300 kPa	2.678 ± 0.034 mPa·s
258.15 K, 188400 kPa	2.69 ± 0.034 mPa·s
258.15 K, 205200 kPa	2.708 ± 0.035 mPa·s
258.15 K, 209200 kPa	2.71 ± 0.035 mPa·s
258.15 K, 239800 kPa	2.754 ± 0.035 mPa·s
258.15 K, 282600 kPa	2.834 ± 0.036 mPa·s
258.15 K, 309000 kPa	2.898 ± 0.037 mPa·s
258.15 K, 323500 kPa	2.934 ± 0.038 mPa·s
258.15 K, 333200 kPa	2.957 ± 0.038 mPa·s
258.15 K, 354100 kPa	3.019 ± 0.039 mPa·s
258.15 K, 361000 kPa	3.033 ± 0.039 mPa·s
263.15 K, 112000 kPa	2.258 ± 0.029 mPa·s
263.15 K, 112100 kPa	2.258 ± 0.029 mPa·s
263.15 K, 128600 kPa	2.247 ± 0.029 mPa·s
263.15 K, 150800 kPa	2.244 ± 0.029 mPa·s
263.15 K, 180700 kPa	2.256 ± 0.029 mPa·s
263.15 K, 209900 kPa	2.281 ± 0.029 mPa·s
263.15 K, 240100 kPa	2.315 ± 0.03 mPa·s
263.15 K, 270500 kPa	2.357 ± 0.03 mPa·s
263.15 K, 302000 kPa	2.415 ± 0.031 mPa·s
263.15 K, 335400 kPa	2.481 ± 0.032 mPa·s
263.15 K, 386400 kPa	2.605 ± 0.033 mPa·s
268.15 K, 61100 kPa	1.969 ± 0.025 mPa·s
268.15 K, 80800 kPa	1.942 ± 0.025 mPa·s
268.15 K, 98000 kPa	1.927 ± 0.025 mPa·s
268.15 K, 100200 kPa	1.926 ± 0.025 mPa·s
268.15 K, 124200 kPa	1.914 ± 0.025 mPa·s
268.15 K, 151100 kPa	1.913 ± 0.025 mPa·s
268.15 K, 177500 kPa	1.924 ± 0.025 mPa·s
268.15 K, 213300 kPa	1.949 ± 0.025 mPa·s
268.15 K, 245400 kPa	1.982 ± 0.025 mPa·s
268.15 K, 295300 kPa	2.047 ± 0.026 mPa·s
268.15 K, 350800 kPa	2.138 ± 0.027 mPa·s
268.15 K, 376700 kPa	2.19 ± 0.028 mPa·s
268.15 K, 387900 kPa	2.212 ± 0.028 mPa·s
273.15 K, 100 kPa	1.799 ± 0.023 mPa·s and 1.802 ± 0.023 mPa·s
273.15 K, 30700 kPa	1.722 ± 0.022 mPa·s
273.15 K, 60400 kPa	1.678 ± 0.022 mPa·s
273.15 K, 90700 kPa	1.653 ± 0.021 mPa·s
273.15 K, 120600 kPa	1.644 ± 0.021 mPa·s
273.15 K, 150300 kPa	1.649 ± 0.021 mPa·s
273.15 K, 180000 kPa	1.659 ± 0.021 mPa·s
273.15 K, 209600 kPa	1.678 ± 0.022 mPa·s
273.15 K, 240300 kPa	1.704 ± 0.022 mPa·s
273.15 K, 270400 kPa	1.735 ± 0.022 mPa·s
273.15 K, 300400 kPa	1.771 ± 0.023 mPa·s
273.15 K, 330300 kPa	1.81 ± 0.023 mPa·s
273.15 K, 359500 kPa	1.852 ± 0.024 mPa·s
273.15 K, 386700 kPa	1.893 ± 0.024 mPa·s
278.15 K, 100 kPa	1.528 ± 0.021 mPa·s
278.15 K, 600 kPa	1.527 ± 0.02 mPa·s
278.15 K, 30700 kPa	1.481 ± 0.019 mPa·s
278.15 K, 60700 kPa	1.454 ± 0.019 mPa·s
278.15 K, 90500 kPa	1.44 ± 0.018 mPa·s
278.15 K, 120300 kPa	1.439 ± 0.018 mPa·s
278.15 K, 150800 kPa	1.444 ± 0.019 mPa·s
278.15 K, 180700 kPa	1.456 ± 0.019 mPa·s
278.15 K, 210700 kPa	1.476 ± 0.019 mPa·s
278.15 K, 240400 kPa	1.498 ± 0.019 mPa·s
278.15 K, 270400 kPa	1.522 ± 0.02 mPa·s
278.15 K, 300600 kPa	1.555 ± 0.02 mPa·s
278.15 K, 330300 kPa	1.591 ± 0.02 mPa·s
278.15 K, 360000 kPa	1.631 ± 0.021 mPa·s
278.15 K, 389000 kPa	1.672 ± 0.021 mPa·s
283.15 K, 100 kPa	1.313 ± 0.025 mPa·s and 1.31 ± 0.025 mPa·s
283.15 K, 500 kPa	1.31 ± 0.023 mPa·s
283.15 K, 30700 kPa	1.28 ± 0.016 mPa·s
283.15 K, 60700 kPa	1.264 ± 0.016 mPa·s
283.15 K, 90700 kPa	1.257 ± 0.016 mPa·s
283.15 K, 120800 kPa	1.257 ± 0.016 mPa·s
283.15 K, 150800 kPa	1.263 ± 0.016 mPa·s
283.15 K, 180800 kPa	1.275 ± 0.016 mPa·s
283.15 K, 210200 kPa	1.293 ± 0.017 mPa·s
283.15 K, 240600 kPa	1.314 ± 0.017 mPa·s
283.15 K, 270700 kPa	1.337 ± 0.017 mPa·s
283.15 K, 300200 kPa	1.362 ± 0.017 mPa·s
283.15 K, 330000 kPa	1.39 ± 0.018 mPa·s
283.15 K, 359200 kPa	1.42 ± 0.018 mPa·s
283.15 K, 385200 kPa	1.45 ± 0.019 mPa·s
298.15 K, 100 kPa	0.892 ± 0.011 mPa·s and 0.893 ± 0.011 mPa·s
298.15 K, 31000 kPa	0.888 ± 0.011 mPa·s
298.15 K, 61000 kPa	0.888 ± 0.011 mPa·s
298.15 K, 90900 kPa	0.891 ± 0.011 mPa·s
298.15 K, 120700 kPa	0.898 ± 0.012 mPa·s
298.15 K, 150600 kPa	0.907 ± 0.012 mPa·s
298.15 K, 180600 kPa	0.919 ± 0.012 mPa·s
298.15 K, 210600 kPa	0.933 ± 0.012 mPa·s
298.15 K, 240600 kPa	0.948 ± 0.012 mPa·s
298.15 K, 270100 kPa	0.965 ± 0.012 mPa·s
298.15 K, 299700 kPa	0.983 ± 0.013 mPa·s
298.15 K, 329200 kPa	1.002 ± 0.013 mPa·s
298.15 K, 358500 kPa	1.022 ± 0.013 mPa·s
298.15 K, 384300 kPa	1.042 ± 0.013 mPa·s
